Data set [1] in a line: Volume of distribution at steady state in rat at 2 mg/kg, iv. Format: ADME, organism-based. The following applies: in vivo, read-out: Vdss.
Data set [2] relates to Staphylococcus aureus. The data set can be described thus: Antibacterial activity against Staphylococcus aureus. Format: functional.
The test system of data set [3] is Cavia porcellus. The experiment in a line: Cardiotoxicity in anesthetized guinea pig model assessed as increase in cardiac alternans at fCmax level. Format: toxicity.
Data set [4] can be described thus: Fraction unbound in mouse plasma. Format: ADME, cell-free.
The nature of data set [5]: Half life in mouse at 10 mg/kg, iv. The class given is ADME, organism-based. The settings on record: in vivo.
Data set [6] deals with Staphylococcus aureus. The experiment in a line: Antibacterial activity against fluoroquinolone-sensitive Staphylococcus aureus 1146. The class given is functional.
Data set [7] in a line: Clearance in mouse at 10 mg/kg, iv. The following applies: in vivo. Format: ADME, organism-based.
The subject of data set [8] is Cavia porcellus. The data set can be described thus: Cardiotoxicity in anesthetized guinea pig model assessed as prolongation of monophasic action potential duration at fCmax level. Format: toxicity.
Data set [9] relates to Cavia porcellus. The data set can be described thus: fCmax in anesthetized guinea pig model. The class given is ADME.
Data set [10] can be described thus: Clearance in rat at 2 mg/kg, iv. Format: ADME, organism-based. The settings on record: in vivo.
Data set [11] is described as follows: Volume of distribution at steady state in mouse at 10 mg/kg, iv. The class given is ADME, organism-based. The settings on record: in vivo, read-out: Vdss.
Data set [12] addresses Voltage-gated inwardly rectifying potassium channel KCNH2 (Homo sapiens, UniProt Q12809). The data set can be described thus: Inhibition of human ERG.
A short description of data set [13]: Ratio of fAUC in fluoroquinolone-resistant Staphylococcus aureus infected mouse neutropenic thigh model to MIC for fluoroquinolone-resistant Staphylococcus aureus.
Data set [14] can be described thus: Inhibition of Staphylococcus aureus DNA gyrase.
Data set [15] can be described thus: Fraction unbound in human plasma. The class given is ADME, cell-free.
Data set [16] can be described thus: Inhibition of Staphylococcus aureus DNA topoisomerase 4.
Data set [17] concerns Staphylococcus aureus. The experiment in a line: Antibacterial activity against fluoroquinolone-resistant Staphylococcus aureus infected in mouse neutropenic thigh model assessed as static dose required for bacterial stasis. Format: functional.
A short description of data set [18]: Fraction unbound in rat plasma. The class given is ADME, cell-free.
In data set [19] the test system is Staphylococcus aureus. The data set can be described thus: Antibacterial activity against Staphylococcus aureus containing DNA gyrase D83N mutations. Format: functional.
Another data set has as its system Streptococcus pyogenes. The data set can be described thus: Antibacterial activity against Streptococcus pyogenes. The class given is functional.
A short description of data set [20]: Half life in rat at 2 mg/kg, iv. The class given is ADME, organism-based. The settings on record: in vivo.
In data set [21] the test system is Staphylococcus aureus. The experiment in a line: Antibacterial activity against fluoroquinolone-resistant Staphylococcus aureus 1095. Format: functional.
Data set [22] relates to Staphylococcus aureus. The data set can be described thus: Antibacterial activity against Staphylococcus aureus containing DNA gyrase M121K mutations. Format: functional.

pIC50: −log10 of the molar value. Values after ≈ are worked out from the molar mass of the structure shown.

Voltage-gated inwardly rectifying potassium channel KCNH2, sequence (Q12809 whole entry): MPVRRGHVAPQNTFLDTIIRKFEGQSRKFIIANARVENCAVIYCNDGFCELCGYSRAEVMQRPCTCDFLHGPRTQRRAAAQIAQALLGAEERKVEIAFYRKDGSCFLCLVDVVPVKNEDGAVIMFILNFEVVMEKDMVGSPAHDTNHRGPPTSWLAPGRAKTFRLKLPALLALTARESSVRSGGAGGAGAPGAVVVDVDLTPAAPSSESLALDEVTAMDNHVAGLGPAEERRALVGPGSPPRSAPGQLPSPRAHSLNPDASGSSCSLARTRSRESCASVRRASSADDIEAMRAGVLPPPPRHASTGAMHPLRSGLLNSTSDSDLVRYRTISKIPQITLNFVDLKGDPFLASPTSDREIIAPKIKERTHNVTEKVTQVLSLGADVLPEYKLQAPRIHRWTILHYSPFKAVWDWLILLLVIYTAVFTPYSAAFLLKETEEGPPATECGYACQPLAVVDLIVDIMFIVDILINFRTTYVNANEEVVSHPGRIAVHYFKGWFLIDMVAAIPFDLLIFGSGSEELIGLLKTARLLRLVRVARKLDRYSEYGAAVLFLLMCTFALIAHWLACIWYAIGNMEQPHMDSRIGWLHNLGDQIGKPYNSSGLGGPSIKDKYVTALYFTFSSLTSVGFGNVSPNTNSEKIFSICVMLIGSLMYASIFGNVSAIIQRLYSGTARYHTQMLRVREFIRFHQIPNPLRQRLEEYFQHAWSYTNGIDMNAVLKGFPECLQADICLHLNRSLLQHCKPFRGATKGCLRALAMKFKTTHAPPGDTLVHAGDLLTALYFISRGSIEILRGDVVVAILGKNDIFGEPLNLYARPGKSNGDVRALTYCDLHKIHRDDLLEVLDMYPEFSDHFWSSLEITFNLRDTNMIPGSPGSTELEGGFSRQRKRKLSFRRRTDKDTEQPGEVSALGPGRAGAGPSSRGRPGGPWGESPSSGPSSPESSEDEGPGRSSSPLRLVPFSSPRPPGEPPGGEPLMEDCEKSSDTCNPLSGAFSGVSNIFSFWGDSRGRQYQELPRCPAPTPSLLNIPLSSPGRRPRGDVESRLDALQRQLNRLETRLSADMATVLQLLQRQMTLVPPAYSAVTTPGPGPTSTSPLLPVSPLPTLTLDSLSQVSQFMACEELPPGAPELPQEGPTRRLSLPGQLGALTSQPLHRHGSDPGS

For the compound `COc1ccc2ncc(F)c([C@@H](O)CC[C@@H]3CCN(C4CC(c5cc(F)ccc5F)C4)C[C@@H]3C(=O)O)c2c1` (stereo partly drawn), the Vd in data set [1] was 1.82 L/kg; in data set [11], 1.24 L/kg. Besides, the MIC90 against Staphylococcus aureus [2] is 0.125 µg/mL (≈ 0.236 µM); against Streptococcus pyogenes, 0.25 to 0.5 µg/mL (≈ 0.473 to 0.946 µM). Moreover, the Activity entry with Cavia porcellus [3] is “Non-Toxic”; with Cavia porcellus [8], “Non-Toxic”; in the data set with Staphylococcus aureus [17] it was 79.7 to 82.8 mg/kg/day. Moreover, the free fraction (fraction unbound) in data set [4] worked out at 0.201; in data set [15] it was 0.054; in data set [18], 0.197. Also, the values for the half-life in data set [5] and in data set [20] were 63 min and 40.8 min, respectively. Moreover, the MIC stood at 0.088 µg/mL (≈ 0.166 µM) with Staphylococcus aureus [6], 3.4 µg/mL (≈ 6.43 µM) in the data set on Staphylococcus aureus [19], 0.11 µg/mL (≈ 0.208 µM) in the data set on Staphylococcus aureus [21] and 2 µg/mL (≈ 3.78 µM) against Staphylococcus aureus [22]. The clearance in data set [7] is 13.7 mL/min/kg; in data set [10], 30.9 mL/min/kg. In the data set on Cavia porcellus [9], this compound returned a fCmax of 27.5 µM. In addition, the pIC50 in data set [12] is 4.07; in data set [14], 6.01; in data set [16], 5.26. Further, the Ratio in data set [13] was determined as 39.

One may read the MIC90 as an inhibitory concentration at the 90% level, which refers to growth in some studies and to a panel of isolates in others. A high value points to lower susceptibility. A word on the fraction unbound: it is the share of the substance not bound to proteins or other matrix. High values mean weak binding, low ones extensive binding. The term half-life denotes how long it takes for the measured level to halve. The term MIC denotes the least concentration at which growth counts as inhibited. Read a low MIC as greater potency. What is called clearance is the volume of plasma or blood freed of the substance per unit of time. Read a low clearance as a low capacity for elimination. What is called pIC50 is −log10 of the IC50, conventionally taken in molar units. Low values mean a high IC50, high ones a low IC50.

These data come from ChEMBL document CHEMBL4033742, “Novel 3-fluoro-6-methoxyquinoline derivatives as inhibitors of bacterial DNA gyrase and topoisomerase IV” (Bioorg Med Chem Lett, 2017).
